Where only a bound is given, the exact number is not on record here.

The term IC50 denotes the concentration needed to halve the response being measured. Read a low IC50 as inhibition by little substance. For orientation: inhibition means the change of the read-out against control, counted positive when it falls.

The first assay concerns the target T1, human ferroportin (Fpn) (Homo sapiens, UniProt Q9NP59).
T1 construct: expressed in transfected cells
T1 sequence (Q9NP59 1-571): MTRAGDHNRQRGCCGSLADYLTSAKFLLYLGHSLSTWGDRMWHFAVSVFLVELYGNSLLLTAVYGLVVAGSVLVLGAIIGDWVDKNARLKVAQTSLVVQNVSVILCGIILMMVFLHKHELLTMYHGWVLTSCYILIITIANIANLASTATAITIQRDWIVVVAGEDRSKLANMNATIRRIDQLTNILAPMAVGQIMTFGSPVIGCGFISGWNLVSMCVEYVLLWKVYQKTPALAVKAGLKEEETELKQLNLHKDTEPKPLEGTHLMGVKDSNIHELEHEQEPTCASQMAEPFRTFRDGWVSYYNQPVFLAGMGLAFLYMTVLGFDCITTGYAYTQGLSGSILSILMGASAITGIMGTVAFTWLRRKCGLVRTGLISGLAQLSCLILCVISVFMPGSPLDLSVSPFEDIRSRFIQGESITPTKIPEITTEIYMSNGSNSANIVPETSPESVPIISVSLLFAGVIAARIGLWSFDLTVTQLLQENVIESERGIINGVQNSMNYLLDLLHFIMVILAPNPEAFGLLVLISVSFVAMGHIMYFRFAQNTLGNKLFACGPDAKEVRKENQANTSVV
Description: Ferroportin internalisation assay (inhibition of hepcidin-induced internalisation of Fpn in MDCK-FPN-HaloTag cells). It is filed as cell-based. Particulars: 100 nM hepcidin, overnight incubation, 11 concentrations 0.04 to 40 μM. On the procedure: The antagonistic effect against hepcidin of the pyrimidine and triazine compounds of the present invention was determined by means of the ferroportin internalisation assay described below.
Low molecular weight organic compounds which counteract the biological effects of hepcidin on its receptor, the iron exporter ferroportin (Fpn) were identified on the basis of their ability to inhibit hepcidin-induced internalisation of Fpn in living cells. A stable cell line (Madin-Darby Canine Kidney, MDCK) was produced for this purpose to express constitutively human ferroportin which is fused recombinantly with a fluorescent reporter protein (HaloTag®, Promega Corp.) at its C terminus. The internalisation of Fpn was monitored by marking these cells with fluorescent ligands (HaloTag® TMR, tetramethylrhodamine) which attach themselves covalently to the HaloTag reporter gene fused with the Fpn. […] Optimised image analysis algorithms were used to detect the cell surface and to quantify the corresponding membrane fluorescence associated with the Fpn-HaloTag fusion protein.
The compound `COc1cnc(-c2ccccn2)nc1N(C)Cc1ccccc1` [Example 24, Benzyl-(5-methoxy-2-pyridin-2-yl-pyrimidin-4-yl)-methyl-amine] came in with an IC50 greater than 50 µM.
In the case of `COc1cnc(CN)nc1NC(C)C` [Example 50, (2-Aminomethyl-5-methoxy-pyrimidin-4-yl)-isopropyl-amine], the IC50 is less than 50 µM.

The same assay, now with this note: 10 μM substance, 100 nM hepcidin, inhibition of Fpn internalisation, read-out: I [%] (Median Inhibition [%] at 10 μM substance conc.).
As to `COc1cnc(-c2ccccn2)nc1NC(C)C` [Example 1, Isopropyl-(5-methoxy-2-pyridin-2-yl-pyrimidin-4-yl)-amine], the inhibition at 10 µM was greater than 50%.
Still for that read-out and setting: as for `Cc1nc(-c2ccccn2)nc(NCCNc2cc(C(F)(F)F)ccn2)c1Cl` [Example 2, N-(5-Chloro-6-methyl-2-pyridin-2-yl-pyrimidin-4-yl)-N′-(4-trifluoromethyl-pyridin-2-yl)-ethane-1,2-diamine], the figure is less than 50%.
Regarding `Nc1nc(-c2ccccn2)nc(N)c1Cc1ccccc1F` [Example 3, 5-(2-Fluoro-benzyl)-2-pyridin-2-yl-pyrimidine-4,6-diamine], the inhibition at 10 µM is less than 50%.
Consider `Cc1nc(-c2ccccn2)nc(NCCNc2ccc(C(F)(F)F)cn2)c1Cl` [Example 4, N-(5-Chloro-6-methyl-2-pyridin-2-yl-pyrimidin-4-yl)-N′-(5-trifluoromethyl-pyridin-2-yl)-ethane-1,2-diamine], for which the inhibition at 10 µM was less than 50%.
Same read-out and setting: as for `Oc1cccc(/C=N/Nc2cc(N3CCOCC3)nc(N3CCOCC3)n2)c1` [Example 5, 3-[(2,6-Dimorpholin-4-yl-pyrimidin-4-yl)-hydrazonomethyl]-phenol], the figure is greater than 50%; as for `Cc1nc(N/N=C/c2ccc(O)cc2O)cc(N2CCOCC2)n1` [Example 6, 4-[(2-Methyl-6-morpholin-4-yl-pyrimidin-4-yl)-hydrazonomethyl]-benzene-1,3-diol], greater than 50%.
As to `Oc1ccccc1/C=N/Nc1cc(N2CCOCC2)nc(N2CCOCC2)n1` [Example 7, 2-[(2,6-Dimorpholin-4-yl-pyrimidin-4-yl)-hydrazonomethyl]-phenol], the inhibition at 10 µM was greater than 50%.
Consider `C/C(=N\Nc1cc(N2CCOCC2)nc(C)n1)c1ccc(F)cc1` [Example 8, N-[1-(4-Fluoro-phenyl)-ethylidene]-N′-(2-methyl-6-morpholin-4-yl-pyrimidin-4-yl)-hydrazine], for which the inhibition at 10 µM was less than 50%.
Same read-out and setting: as for `COc1ccc(O)c(/C=N/Nc2nc(N3CCOCC3)nc(N3CCOCC3)n2)c1` [Example 9, 2-[(4,6-Dimorpholin-4-yl-[1,3,5]triazin-2-yl)-hydrazonomethyl]-4-methoxy-phenol], the figure is greater than 50%; as for `c1ccc(N(c2ccccc2)c2nc(N3CCOCC3)nc(-n3ccnc3)n2)cc1` [Example 10, (4-Imidazol-1-yl-6-morpholin-4-yl-[1,3,5]triazin-2-yl)-diphenyl-amine], greater than 50%.
Turning to `CN(c1ccccc1)c1nc(N2CCOCC2)nc(-n2ccnc2)n1` [Example 11, (4-Imidazol-1-yl-6-morpholin-4-yl-[1,3,5]triazin-2-yl)-methyl-phenyl-amine], the inhibition at 10 µM was less than 50%.
Take `Cc1ccc2cc(Nc3nc(N4CCOCC4)nc(N4CCOCC4)n3)ccc2n1` [Example 12, (4,6-Dimorpholin-4-yl-[1,3,5]triazin-2-yl)-(2-methyl-quinolin-6-yl)-amine]: the inhibition at 10 µM was less than 50%.

The values are drawn from patent US20120202806A1, “Novel Pyrimidine- And Triazine-Hepcidine Antagonists” (VIFOR (INTERNATIONAL) AG, priority 2009, published 2012).
